How the values were obtained:
[1] = system: Apis mellifera Carniolan foraging worker honeybees; assay: Proboscis extension response (PER) assay with bees conditioned to 2-heptanone; type: in vivo; conditions: 0.5% compound in Triton X-100/water on filter paper, 4 s exposure; only bees giving PER with 2-heptanone and not with water or 15% Triton X-100 controls counted
Method: To determine whether a living honeybee can recognize a candidate compound, these compounds were tested using a proboscis extension response (PER) assay using classical conditioning approaches. Proboscis extension response conditioning is a case of appetitive learning, in which bees learn to associate odor stimuli with sucrose reward in the laboratory. In this case, bees were conditioned to produce a PER to 2-heptanone as the conditioned stimulus and a sugar reward as the unconditioned stimulus. These trained bees were then exposed to an odor pulse of a candidate compound to test whether a candidate compound would also produce a PER. If the candidate compound “mimics” 2-heptanone then the honeybee will extend its proboscis.
For conditioning procedures, Apis mellifera Carniolan foraging worker honeybees were obtained from a local apiary (typically 60 bees per shipment). The honeybees were held overnight in insect cages with food and water freely available, in an environmentally controlled room on a light cycle similar to the ambient cycle at the time of the assay.
For conditioning procedures, all tests were done in an odorant delivery apparatus set inside a fume hood. The apparatus comprised a set of open-ended, horizontal, 3 cm diameter by 10 cm long plastic tubes. Each tube was designed where a honeybee could be positioned at the distal end of a tube, with the opening at the other end of the tube located proximal to an inlet of the fume hood. To deliver an odorant, room air was pumped by a diaphragm pump through a particle filter via 0.25 inch plastic tubing at approximately 0.7 m/sec. The air flow passes into the headspace above an odorant (0.5% [v/v] 2-heptanone dissolved in odorless light paraffin oil) contained in a 100 mL bottle. The headspace air then passes through another plastic tube to a manifold of 4-way valves, each of which was attached near the proximal end of a plastic tube containing a bee. Each bee was exposed separately for a desired time period to the odorant by opening and closing the appropriate valve. When each valve was closed, the odor was flushed away immediately by the continuous fume hood air stream.
To train a honeybee to respond to a conditioned and unconditioned stimuli, bees were placed, without anesthesia, in individual 1.5 mL micro-centrifuge holding tubes and held overnight without access to food or water. The holding tubes containing the starved bees were placed in racks in groups of eight. One rack at a time was placed behind the odorant delivery apparatus so that each bee's head is centered at the distal end of a horizontal plastic tube. Each bee was exposed to the 2-heptanone odorant alone for four seconds, and then while being fed an 80% sucrose solution for and additional three seconds. The sucrose solution was delivered on a piece of saturated filter paper held in forceps. […] Positive and negative responses were recorded. A positive PER was scored when a bee extended its proboscis before the sucrose appeared. In a typical trial, 48 individual bees were subjected to conditioning.
After conditioning, honeybees were tested with the candidate compounds the same day or on the following day or, most commonly, both. When held overnight, bees were fed with sucrose and kept in their holding tubes. When tested the day after training, bees were given one or more rounds of conditioning with 2-heptatone to refresh their memories. Candidate compounds stocks were made at 5% (w/v) in polyoxyethylene octyl phenyl ether (TRITON® X-100), a non-ionic detergent/surfactant, and stored at 4° C. […] Test solutions were made fresh daily by mixing stock solutions with water for a final compound concentration of 0.5%. A solution of 0.5% 2-heptanone in paraffin oil was used as a positive control.

[2] = system: OBP2; assay: Fluorescent-quench ligand-protein-binding assay (OBP2 binding); design: species or system Apis mellifera
Source text: To identify a honeybee repellent disclosed herein, candidate compounds were screened based upon the fact that 2-heptanone is an established repellent of bees. 2-heptanone is thought to mediate its behavioral response through binding to a specific odorant-binding protein called OBP2. […] Such assays are generally known in the art. See, e.g., Briand, et al., Ligand-Binding Properties and Structural Characterization of a Novel Rat Odorant-Binding Protein Variant, Eur. J. Biochem. 267(10): 3079-3089 (2000); Briand, et al., Ligand Binding and Physico-Chemical Properties of ASP2, A Recombinant Odorant-Binding Protein From Honeybee (Apis mellifera L.), Eur. J. Biochem. 268(3): 752-760 (2001); Briand, et al., Characterization of a Chemosensory Protein (ASP3c) from Honeybee (Apis mellifera L.) as a Brood Pheromone Carrier, Eur. J. Biochem. 269(18): 4586-4596 (2002), each of which is hereby incorporated by reference in its entirety.

Structure (SMILES)	2-heptanone positive bees testing positive to compound [1]	OBP2 binding characteristic of compound [2]
COc1ccccc1NC(=S)NC(=O)c1ccc(F)cc1 [compound 107]	5.1%	Moderate (Moderate, indicates that 50% or less of the compound bound to OBP2.)
CCOC(=O)c1ccc(N2NC(=O)C(=Cc3ccc(N4CCOCC4)cc3)C2=O)cc1 [compound 101]	20.9%	Moderate (Moderate, indicates that 50% or less of the compound bound to OBP2.)
O=c1c2cc(O)cc3cccc(c32)c2nc3ccc4c5c(ccc(c35)n12)CC4 [compound 112]	44.4%	Moderate (Moderate, indicates that 50% or less of the compound bound to OBP2.)
O=C(C=CNc1ccccc1O)c1ccc(Br)cc1 [compound 110]	31.4%	Moderate (Moderate, indicates that 50% or less of the compound bound to OBP2.)
CCN1C(=O)C(=Cc2cc(Br)ccc2O)SC1=S [compound 116]	25.0%	Moderate (Moderate, indicates that 50% or less of the compound bound to OBP2.)
C=CCN1C(=O)C(=Cc2cccc([N+](=O)[O-])c2O)SC1=S [compound 91]	17.3%	Moderate (Moderate, indicates that 50% or less of the compound bound to OBP2.)
Cc1cc(C)c(O)c(N=Cc2cc(I)cc(I)c2O)c1 [compound 82]	6.4%	Moderate (Moderate, indicates that 50% or less of the compound bound to OBP2.)
O=C(c1ccccc1)N1N=C(C(F)(F)F)CC1(O)c1ccccc1O (stereo not shown) [compound 73]	8.3%	Moderate (Moderate, indicates that 50% or less of the compound bound to OBP2.)
O=C(NN=Cc1ccc(-c2cccc(Cl)c2Cl)o1)c1ccncc1 [compound 113]	11.1%	Moderate (Moderate, indicates that 50% or less of the compound bound to OBP2.)
COc1ccc2ccccc2c1C=Nc1cc(C)ccc1C [compound 84]	27.9%	Moderate (Moderate, indicates that 50% or less of the compound bound to OBP2.)
COc1ccc(-c2ccc(C=NNC(=O)c3ccccn3)o2)cc1Cl [compound 114]	22.2%	Moderate (Moderate, indicates that 50% or less of the compound bound to OBP2.)
Clc1ccccc1-c1nnc(SCc2ccccc2)o1 [compound 106]	7.3%	Moderate (Moderate, indicates that 50% or less of the compound bound to OBP2.)
CCOC(=O)c1c(-c2ccccc2)csc1NC(=S)NC(C)=O [compound 78]	7.7%	Moderate (Moderate, indicates that 50% or less of the compound bound to OBP2.)
Oc1c(I)cc2oc3c(c2c1C=Nc1nc[nH]n1)CCCC3 [compound 96]	28.6%	Moderate (Moderate, indicates that 50% or less of the compound bound to OBP2.)
O=C1NC(=S)SC1=Cc1ccc(N2CCOCC2)c([N+](=O)[O-])c1 [compound 85]	18.0%	Moderate (Moderate, indicates that 50% or less of the compound bound to OBP2.)
Cc1ccc(NC(=O)c2c(NC(=O)c3ccco3)sc3c2CCCCC3)cc1 [compound 98]	21.6%	Moderate (Moderate, indicates that 50% or less of the compound bound to OBP2.)
COc1cccc(C=C2SC(=N)NC2=O)c1OCc1ccc(Cl)cc1Cl [compound 118]		Moderate (Moderate, indicates that 50% or less of the compound bound to OBP2.)
O=C(NC(=S)Nc1cccc2cccnc12)c1cccs1 [compound 117]		Moderate (Moderate, indicates that 50% or less of the compound bound to OBP2.)
